{"source": "patent US6943193B1", "about": "“Method for treating sexual dysfunction” (priority 2003, dated 2005)", "origin": "cited, not measured here", "test_system": "erectile dysfunction"}
{"smiles": "CCCc1nn(C)c2c(=O)[nH]c(-c3cc(S(=O)(=O)N4CCN(C)CC4)ccc3OCC)nc12", "note": "[sildenafil]", "values": [{"measurement": "efficacy", "setting": "clinical practice", "value": "~50", "unit": "%"}, {"measurement": "success rates", "setting": "initial reports", "value": "≤ 85", "unit": "%"}]}
